Source: the supplement of paper PMC10307832

Assays:
Test in all cases: relative viability (nuclei count vs DMSO), 5 days (fraction); higher = more cells survive
[1] = compound: COC1=CC=C(C=C1)CN2C=CC3=C2C=C(C=C3)C(=O)NO + CCNC(=O)c1noc(-c2cc(C(C)C)c(O)cc2O)c1-c1ccc(CN2CCOCC2)cc1 [Luminespib] (partner 0.01 µM)
Summary of the method: (§1)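 Relative viability equals treated-well nuclei counts divided by vehicle-well nuclei counts. Counts came from 4× images of lung cancer cell lines grown in 1536-well plates for 5 days after pin-tool dosing on the day after seeding. Dosing used one drug alone or a fixed anchor-drug dose plus five library-drug doses (not always all listed) in √10 steps, and values are medians of duplicate plates.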

Veliparib + Pictilisib = compound: C[C@]1(c2nc3c(C(N)=O)cccc3[nH]2)CCCN1 [Veliparib] + CS(=O)(=O)N1CCN(Cc2cc3nc(-c4cccc5[nH]ncc45)nc(N4CCOCC4)c3s2)CC1 [Pictilisib] (partner 1 µM)
Summary of the method: as §1

Veliparib + AZD7762 = compound: C[C@]1(c2nc3c(C(N)=O)cccc3[nH]2)CCCN1 [Veliparib] + NC(=O)Nc1cc(-c2cccc(F)c2)sc1C(=O)N[C@H]1CCCNC1 [AZD7762] (partner 0.2 µM)
Summary of the method: as §1

[2] = compound: COC1=CC=C(C=C1)CN2C=CC3=C2C=C(C=C3)C(=O)NO + O=C(c1cc(Cc2n[nH]c(=O)c3ccccc23)ccc1F)N1CCN(C(=O)C2CC2)CC1 [Olaparib] (partner 8 µM)
Summary of the method: as §1

Row | Cell Line | relative viability ([1]; first compound 0.08 µM) | relative viability ([1]; first compound 0.253 µM) | relative viability ([1]; first compound 0.8 µM) | relative viability ([1]; first compound 2.53 µM) | relative viability ([1]; first compound 8 µM) | relative viability (Veliparib + Pictilisib; first compound 0.02 µM) | relative viability (Veliparib + Pictilisib; first compound 0.06325 µM) | relative viability (Veliparib + Pictilisib; first compound 0.2 µM) | relative viability (Veliparib + Pictilisib; first compound 0.6325 µM) | relative viability (Veliparib + Pictilisib; first compound 2 µM) | relative viability (Veliparib + AZD7762; first compound 0.02 µM) | relative viability (Veliparib + AZD7762; first compound 0.06325 µM) | relative viability (Veliparib + AZD7762; first compound 0.2 µM) | relative viability (Veliparib + AZD7762; first compound 0.6325 µM) | relative viability (Veliparib + AZD7762; first compound 2 µM) | relative viability ([2]; first compound 0.08 µM) | relative viability ([2]; first compound 0.253 µM) | relative viability ([2]; first compound 0.8 µM) | relative viability ([2]; first compound 2.53 µM) | relative viability ([2]; first compound 8 µM)
1 | RERF-LC-KJ | 1.24 | 1.35 | 1.17 | 1.26 | 1.08 | 0.59 | 0.529 | 0.592 | 0.563 | 0.454 | 1.07 | 0.896 | 0.999 | 0.933 | 1.03 | 0.829 | 0.825 | 0.986 | 0.816 | 0.806
2 | PC-3 [JPC-3] | 0.797 | 0.746 | 0.655 | 0.729 | 0.753 | 0.774 | 0.689 | 0.774 | 0.69 | 0.758 | 0.82 |  | 0.875 | 0.898 | 0.773 | 1.1 |  | 1.11 | 1.19 | 1.14
3 | EKVX | 0.864 | 0.896 | 0.913 | 0.858 | 0.783 | 0.427 | 0.464 | 0.465 | 0.361 | 0.397 |  | 0.731 | 0.833 | 0.728 | 0.806 |  | 0.802 | 0.739 | 0.868 | 0.758
4 | NCI-H1355 |  | 0.834 | 0.776 | 0.7 | 0.522 |  | 0.329 | 0.477 | 0.406 | 0.472 | 0.733 | 0.685 | 0.726 | 0.684 | 0.739 | 0.419 | 0.807 | 0.773 | 0.775 | 0.727
5 | NCI-H2170 | 0.566 | 0.748 | 0.549 | 0.833 | 0.589 | 0.328 | 0.345 | 0.314 | 0.346 | 0.347 | 0.849 | 0.904 | 0.786 | 0.829 | 0.734 | 0.55 | 0.556 | 0.635 | 0.648 | 0.523
6 | NCI-H441 | 0.27 | 0.322 | 0.37 | 0.422 | 0.322 | 0.472 | 0.501 | 0.588 | 0.504 | 0.516 | 1.12 | 1.09 | 1.14 | 1.01 | 1.04 | 0.441 | 0.58 | 0.526 | 0.497 | 0.609
7 | NCI-H1666 | 0.911 | 1.07 | 1.01 | 0.987 | 1.15 | 0.357 | 0.334 | 0.625 | 0.427 | 0.49 | 0.872 | 0.823 | 0.799 | 0.918 | 0.881 | 0.746 | 0.737 | 0.745 | 0.682 | 0.818
8 | NCI-H2347 | 0.361 | 0.383 | 0.396 | 0.552 | 0.501 | 0.666 | 0.612 | 0.668 | 0.707 | 0.724 | 0.77 | 0.787 | 0.788 | 0.769 | 0.624 | 0.53 | 0.53 | 0.651 | 0.67 | 0.524
9 | NCI-H460 | 0.0291 | 0.0369 | 0.0487 | 0.0276 | 0.0281 | 0.349 | 0.335 | 0.325 | 0.347 | 0.377 | 0.635 | 0.469 | 0.602 | 0.583 | 0.516 | 0.426 | 0.457 | 0.401 | 0.465 | 0.397
10 | NCI-H2085 | 0.392 | 0.413 | 0.409 | 0.447 | 0.471 | 0.468 | 0.463 | 0.39 | 0.415 | 0.396 | 0.813 | 0.984 | 1.05 | 1.03 | 0.911 | 0.803 | 0.723 | 0.842 | 0.777 | 0.768
11 | NCI-H596 | 0.934 | 0.955 | 0.972 | 1.01 | 0.863 | 0.394 | 0.35 | 0.4 | 0.362 | 0.416 | 1.34 | 1.22 | 1.17 | 1.13 | 0.952 | 0.66 | 0.778 | 0.735 | 0.805 | 0.725
12 | HCC-15 | 0.319 | 0.277 | 0.304 | 0.45 | 0.34 | 0.581 | 0.748 | 0.682 | 0.691 | 0.662 | 1.24 | 1.13 | 1.11 | 1.37 | 1.28 | 0.635 | 0.71 | 0.729 | 0.846 | 0.728
13 | NCI-H2405 | 0.59 | 0.689 | 0.77 | 0.679 | 0.583 |  | 0.46 | 0.456 | 0.468 | 0.308 | 0.772 |  | 0.81 | 0.734 | 0.738 | 0.649 |  | 0.85 | 0.887 | 0.799
14 | ABC-1 |  | 0.844 | 0.391 | 0.435 | 0.391 |  | 0.702 | 0.609 | 0.735 | 0.851 |  | 0.778 | 0.771 | 0.752 | 0.716 |  | 0.745 | 0.73 | 0.734 | 0.87
15 | ChaGo-K-1 |  | 0.69 | 0.494 | 0.601 | 0.409 |  | 0.55 | 0.86 | 0.914 | 0.718 | 0.73 | 0.854 | 0.83 | 0.83 | 0.824 |  | 0.459 | 0.424 | 0.409 | 0.324
16 | NCI-H2126 | 0.839 | 0.967 | 0.944 | 0.917 | 0.881 | 0.531 | 0.452 | 0.507 | 0.458 | 0.537 | 0.957 | 0.975 | 1.03 | 1.07 | 0.834 | 0.869 | 0.945 | 0.961 | 0.956 | 0.874
17 | NCI-H838 |  | 0.315 | 0.364 | 0.354 | 0.381 | 0.441 | 0.455 | 0.418 | 0.335 | 0.457 | 0.998 | 0.914 | 0.963 | 0.94 | 0.937 | 0.622 | 0.843 | 0.796 | 0.735 | 0.696
